Measurements published in patent publication US20260262643A1, “HERBICIDAL BENZOXAZINES” (FMC CORPORATION, priority 2022, published 2026).

Legend:
blackgrass [1] = test: Test A preemergence; type: in vivo, Alopecurus myosuroides
In short: (§1)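 Weeds and crops in loam–sand blend were sprayed preemergence onto soil or postemergence at 2–10 cm (one- to two-leaf stage). Test chemicals were in a non-phytotoxic solvent with surfactant. After 10 days in the greenhouse, injury was rated visually against untreated controls on a 0 (no effect) to 100 (complete control) scale.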

corn [2] = test: Test A preemergence; type: in vivo, Zea mays
In short: as §1

foxtail, giant [3] = test: Test A preemergence; type: in vivo, Setaria faberi
In short: as §1

goosegrass [4] = test: Test A preemergence; type: in vivo, Eleusine indica
In short: as §1

kochia [5] = test: Test A preemergence; type: in vivo, Bassia scoparia
In short: as §1

oat, wild [6] = test: Test A preemergence; type: in vivo, Avena fatua
In short: as §1

pigweed, palmer [7] = test: Test A preemergence; type: in vivo, Amaranthus palmeri
In short: as §1

ragweed [8] = test: Test A preemergence; type: in vivo, Ambrosia artemisiifolia
In short: as §1

ryegrass, Italian [9] = test: Test A preemergence; type: in vivo, Lolium multiflorum
In short: as §1

soybean [10] = test: Test A preemergence; type: in vivo, Glycine max
In short: as §1

wheat [11] = test: Test A preemergence; type: in vivo, Triticum aestivum
In short: as §1

blackgrass [12] = test: Test A postemergence; type: in vivo, Alopecurus myosuroides; settings: postemergence, 10 days; for Blackgrass plant response rating: 125 g ai/ha, 0 to 100 scale, 0 no effect, 100 complete control; for Plant response rating, Blackgrass: 500 g ai/ha, visual injury, 0 to 100 scale (0 no effect, 100 complete control)
In short: as §1

corn [13] = test: Test A postemergence; type: in vivo, Zea mays; settings: postemergence, 10 days; for Corn plant response rating: 125 g ai/ha, 0 to 100 scale, 0 no effect, 100 complete control; for Plant response rating, Corn: 500 g ai/ha, visual injury, 0 to 100 scale (0 no effect, 100 complete control)
In short: as §1

foxtail, giant [14] = test: Test A postemergence; type: in vivo, Setaria faberi; settings: postemergence, 10 days; for Foxtail, Giant plant response rating: 125 g ai/ha, 0 to 100 scale, 0 no effect, 100 complete control; for Plant response rating, Foxtail, Giant: 500 g ai/ha, visual injury, 0 to 100 scale (0 no effect, 100 complete control)
In short: as §1

goosegrass [15] = test: Test A postemergence; type: in vivo, Eleusine indica; settings: postemergence, 10 days; for Goosegrass plant response rating: 125 g ai/ha, 0 to 100 scale, 0 no effect, 100 complete control; for Plant response rating, Goosegrass: 500 g ai/ha, visual injury, 0 to 100 scale (0 no effect, 100 complete control)
In short: as §1

kochia [16] = test: Test A postemergence; type: in vivo, Bassia scoparia; settings: postemergence, 10 days; for Kochia plant response rating: 125 g ai/ha, 0 to 100 scale, 0 no effect, 100 complete control; for Plant response rating, Kochia: 500 g ai/ha, visual injury, 0 to 100 scale (0 no effect, 100 complete control)
In short: as §1

oat, wild [17] = test: Test A postemergence; type: in vivo, Avena fatua; settings: postemergence, 10 days; for Oat, Wild plant response rating: 125 g ai/ha, 0 to 100 scale, 0 no effect, 100 complete control; for Plant response rating, Oat, Wild: 500 g ai/ha, visual injury, 0 to 100 scale (0 no effect, 100 complete control)
In short: as §1

pigweed, palmer [18] = test: Test A postemergence; type: in vivo, Amaranthus palmeri; settings: postemergence, 10 days; for Pigweed, Palmer plant response rating: 125 g ai/ha, 0 to 100 scale, 0 no effect, 100 complete control; for Plant response rating, Pigweed, Palmer: 500 g ai/ha, visual injury, 0 to 100 scale (0 no effect, 100 complete control)
In short: as §1

ragweed [19] = test: Test A postemergence; type: in vivo, Ambrosia artemisiifolia; settings: postemergence, 10 days; for Ragweed plant response rating: 125 g ai/ha, 0 to 100 scale, 0 no effect, 100 complete control; for Plant response rating, Ragweed: 500 g ai/ha, visual injury, 0 to 100 scale (0 no effect, 100 complete control)
In short: as §1

ryegrass, Italian [20] = test: Test A postemergence; type: in vivo, Lolium multiflorum; settings: postemergence, 10 days; for Ryegrass, Italian plant response rating: 125 g ai/ha, 0 to 100 scale, 0 no effect, 100 complete control; for Plant response rating, Ryegrass, Italian: 500 g ai/ha, visual injury, 0 to 100 scale (0 no effect, 100 complete control)
In short: as §1

soybean [21] = test: Test A postemergence; type: in vivo, Glycine max; settings: postemergence, 10 days; for Soybean plant response rating: 125 g ai/ha, 0 to 100 scale, 0 no effect, 100 complete control; for Plant response rating, Soybean: 500 g ai/ha, visual injury, 0 to 100 scale (0 no effect, 100 complete control)
In short: as §1

wheat [22] = test: Test A postemergence; type: in vivo, Triticum aestivum; settings: postemergence, 10 days; for Wheat plant response rating: 125 g ai/ha, 0 to 100 scale, 0 no effect, 100 complete control; for Plant response rating, Wheat: 500 g ai/ha, visual injury, 0 to 100 scale (0 no effect, 100 complete control)
In short: as §1

galium = test: Test A postemergence; type: in vivo, Galium aparine; settings: postemergence, 10 days; for Galium plant response rating: 125 g ai/ha, 0 to 100 scale, 0 no effect, 100 complete control; for Plant response rating, Galium: 500 g ai/ha, visual injury, 0 to 100 scale (0 no effect, 100 complete control)
In short: as §1

horseweed = test: Test A postemergence; type: in vivo, Erigeron canadensis; settings: postemergence, 10 days; for Horseweed plant response rating: 125 g ai/ha, 0 to 100 scale, 0 no effect, 100 complete control; for Plant response rating, Horseweed: 500 g ai/ha, visual injury, 0 to 100 scale (0 no effect, 100 complete control)
In short: as §1

barnyardgrass = test: Test B flooded paddy test; type: in vivo, Echinochloa crus-galli; settings: 250 g ai/ha, Flood, 13 days, 0 to 100 scale (0 no effect, 100 complete control)
In short: (§2)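 Species grown to 2-leaf stage; pots flooded 3 cm above soil and compound applied directly to paddy water, depth maintained throughout. After 13 days in greenhouse, plants visually rated against controls on 0–100 scale (0 no effect, 100 complete control); dash means no result.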

ducksalad = test: Test B flooded paddy test; type: in vivo, Heteranthera limosa; settings: 250 g ai/ha, Flood, 13 days, 0 to 100 scale (0 no effect, 100 complete control)
In short: as §2

rice = test: Test B flooded paddy test; type: in vivo, Oryza sativa; settings: 250 g ai/ha, Flood, 13 days, 0 to 100 scale (0 no effect, 100 complete control)
In short: as §2

sedge, umbrella = test: Test B flooded paddy test; type: in vivo, Cyperus difformis; settings: 250 g ai/ha, Flood, 13 days, 0 to 100 scale (0 no effect, 100 complete control)
In short: as §2

[23] = 125 g ai/ha, visual injury after 10 days, 0 to 100 scale, 0 is no effect, 100 is complete control
[24] = 500 g ai/ha, 0 to 100 scale (0 no effect, 100 complete control), 10 days

CCc1ccc(-n2cnc(C3CCC3)n2)cc1C(=O)N1C[C@H](C)Oc2c(Cl)cccc21 [Compound 104]
Plant response rating, Blackgrass (blackgrass [1]; [23]): 30
Plant response rating, Blackgrass (blackgrass [1]; [24]): 40
Plant response rating, Corn (corn [2]; [23]): 0
Plant response rating, Corn (corn [2]; [24]): 0
Plant response rating, Foxtail, Giant (foxtail, giant [3]; [23]): 100
Plant response rating, Foxtail, Giant (foxtail, giant [3]; [24]): 100
Plant response rating, Goosegrass (goosegrass [4]; [23]): 100
Plant response rating, Goosegrass (goosegrass [4]; [24]): 100
Plant response rating, Kochia (kochia [5]; [23]): 50
Plant response rating, Kochia (kochia [5]; [24]): 100
Plant response rating, Oat, Wild (oat, wild [6]; [23]): 0
Plant response rating, Oat, Wild (oat, wild [6]; [24]): 70
Plant response rating, Pigweed, Palmer (pigweed, palmer [7]; [23]): 90
Plant response rating, Pigweed, Palmer (pigweed, palmer [7]; [24]): 100
Plant response rating, Ragweed (ragweed [8]; [23]): 0
Plant response rating, Ragweed (ragweed [8]; [24]): 40
Plant response rating, Ryegrass, Italian (ryegrass, Italian [9]; [23]): 50
Plant response rating, Ryegrass, Italian (ryegrass, Italian [9]; [24]): 90
Plant response rating, Soybean (soybean [10]; [23]): 60
Plant response rating, Soybean (soybean [10]; [24]): 90
Plant response rating, Wheat (wheat [11]; [23]): 0
Plant response rating, Wheat (wheat [11]; [24]): 0
Blackgrass plant response rating (blackgrass [12]): 0
Plant response rating, Blackgrass (blackgrass [12]): 50
Corn plant response rating (corn [13]): 40
Plant response rating, Corn (corn [13]): 80
Foxtail, Giant plant response rating (foxtail, giant [14]): 90
Plant response rating, Foxtail, Giant (foxtail, giant [14]): 90
Goosegrass plant response rating (goosegrass [15]): 50
Plant response rating, Goosegrass (goosegrass [15]): 80
Kochia plant response rating (kochia [16]): 80
Plant response rating, Kochia (kochia [16]): 100
Oat, Wild plant response rating (oat, wild [17]): 20
Plant response rating, Oat, Wild (oat, wild [17]): 40
Pigweed, Palmer plant response rating (pigweed, palmer [18]): 80
Plant response rating, Pigweed, Palmer (pigweed, palmer [18]): 100
Ragweed plant response rating (ragweed [19]): 0
Plant response rating, Ragweed (ragweed [19]): 30
Ryegrass, Italian plant response rating (ryegrass, Italian [20]): 30
Plant response rating, Ryegrass, Italian (ryegrass, Italian [20]): 60
Soybean plant response rating (soybean [21]): 100
Plant response rating, Soybean (soybean [21]): 100
Wheat plant response rating (wheat [22]): 10
Plant response rating, Wheat (wheat [22]): 10
Galium plant response rating (galium): 60
Plant response rating, Galium (galium): 100
Horseweed plant response rating (horseweed): 0
Plant response rating, Horseweed (horseweed): 0
Plant response rating, Barnyardgrass (barnyardgrass): 60
Plant response rating, Ducksalad (ducksalad): 25
Plant response rating, Rice (rice): 20
Plant response rating, Sedge, Umbrella (sedge, umbrella): 98

CC(C)c1ncn(-c2ccc(O)c(C(=O)N3C[C@H](C)Oc4c(Cl)cccc43)c2)n1 [Compound 105]
Plant response rating, Blackgrass (blackgrass [1]; [23]): 10
Plant response rating, Blackgrass (blackgrass [1]; [24]): 20
Plant response rating, Corn (corn [2]; [23]): 0
Plant response rating, Corn (corn [2]; [24]): 0
Plant response rating, Foxtail, Giant (foxtail, giant [3]; [23]): 70
Plant response rating, Foxtail, Giant (foxtail, giant [3]; [24]): 100
Plant response rating, Goosegrass (goosegrass [4]; [23]): 60
Plant response rating, Goosegrass (goosegrass [4]; [24]): 100
Plant response rating, Kochia (kochia [5]; [23]): 50
Plant response rating, Kochia (kochia [5]; [24]): 90
Plant response rating, Oat, Wild (oat, wild [6]; [23]): 70
Plant response rating, Oat, Wild (oat, wild [6]; [24]): 70
Plant response rating, Pigweed, Palmer (pigweed, palmer [7]; [23]): 30
Plant response rating, Pigweed, Palmer (pigweed, palmer [7]; [24]): 90
Plant response rating, Ragweed (ragweed [8]; [23]): 0
Plant response rating, Ragweed (ragweed [8]; [24]): 0
Plant response rating, Ryegrass, Italian (ryegrass, Italian [9]; [23]): 40
Plant response rating, Ryegrass, Italian (ryegrass, Italian [9]; [24]): 80
Plant response rating, Soybean (soybean [10]; [23]): 0
Plant response rating, Soybean (soybean [10]; [24]): 0
Plant response rating, Wheat (wheat [11]; [23]): 0
Plant response rating, Wheat (wheat [11]; [24]): 10
Blackgrass plant response rating (blackgrass [12]): 30
Plant response rating, Blackgrass (blackgrass [12]): 30
Corn plant response rating (corn [13]): 20
Plant response rating, Corn (corn [13]): 50
Foxtail, Giant plant response rating (foxtail, giant [14]): 20
Plant response rating, Foxtail, Giant (foxtail, giant [14]): 80
Goosegrass plant response rating (goosegrass [15]): 0
Plant response rating, Goosegrass (goosegrass [15]): 50
Kochia plant response rating (kochia [16]): 90
Plant response rating, Kochia (kochia [16]): 90
Oat, Wild plant response rating (oat, wild [17]): 70
Plant response rating, Oat, Wild (oat, wild [17]): 70
Pigweed, Palmer plant response rating (pigweed, palmer [18]): 40
Plant response rating, Pigweed, Palmer (pigweed, palmer [18]): 60
Ragweed plant response rating (ragweed [19]): 0
Plant response rating, Ragweed (ragweed [19]): 0
Ryegrass, Italian plant response rating (ryegrass, Italian [20]): 0
Plant response rating, Ryegrass, Italian (ryegrass, Italian [20]): 20
Soybean plant response rating (soybean [21]): 70
Plant response rating, Soybean (soybean [21]): 100
Wheat plant response rating (wheat [22]): 0
Plant response rating, Wheat (wheat [22]): 10
Galium plant response rating (galium): 60
Plant response rating, Galium (galium): 70
Horseweed plant response rating (horseweed): 0
Plant response rating, Horseweed (horseweed): 0
Plant response rating, Barnyardgrass (barnyardgrass): 0
Plant response rating, Ducksalad (ducksalad): 0
Plant response rating, Rice (rice): 0
Plant response rating, Sedge, Umbrella (sedge, umbrella): 0
